Patent US9982017B2, “Synthetic apelin mimetics for the treatment of heart failure” (priority 2012, dated 2018)
Where a SMILES comes first, the peptide text is derived from it. Bridges are numbered along the chain shown (N, C = ends). [ ]: non-standard residue; d: D form. The star is where a group is joined. ξ: configuration not given here. Palmitoyl = CCCCCCCCCCCCCCCC(=O)*; Myristoyl = CCCCCCCCCCCCCC(=O)*; pGlu = O=C1CC[C@@H](C(=O)O)N1; NHPhenethyl = c1ccc(CCN*)cc1; Lauroyl = CCCCCCCCCCCC(=O)*; Nle = CCCC[C@H](N)C(=O)O; Orn = NCCC[C@H](N)C(=O)O; Api = NC1(C(=O)O)CCNCC1; ξPip = O=C(O)C1CCCCN1

Experiment: in vitro
Conditions: rat, not told, Surrogate activity-based Plasma stability t½
Experimental: The slope of this line, k, was determined by linear regression (Microsoft Excel). • Stability half-life was then calculated by the formula, t ½=0.693÷k Surrogate Activity-Based Plasma Stability Assay:
The calcium flux protocol described above was followed, with the following changes. The peptides were also incubated with 5% rat plasma (Bioreclamation # [sequence]-M, Na Heparin-treated). Readings were taken at time points t0 and t24 hrs, after incubation in a 37° C. tissue culture incubator. Peptide plasma half-life in minutes was estimated by calculating the following:
2) Calculate slope of value above and

Compound | half-life
CCCC[C@@H]1NC(=O)[C@@H]2CCCN2C(=O)CNC(=O)[C@H](CCCCN)NC(=O)[C@H](Cc2c[nH]cn2)NC(=O)[C@@H](NC(=O)[C@H](CC(C)C)NC(=O)[C@H](CCCNC(=N)N)NC(=O)[C@@H]2CCCN2C(=O)[C@@H](CCCNC(=N)N)NC(=O)[C@@H]2CCC(=O)N2)CSSC[C@@H](C(=O)N[C@@H](Cc2ccccc2)C(=O)O)NC1=O [Example 30, pE-r-P-R-L-C-H-K-G-P-Nle-C-F-OH] ([pGlu][dR]PRLCHKGP[Nle]CF-OH; disulfide 6-12) | > 16.7 h
CCCC[C@@H]1NC(=O)[C@@H]2CCCN2C(=O)CNC(=O)[C@H](CCCCN)NC(=O)[C@H](Cc2c[nH]cn2)NC(=O)[C@@H](NC(=O)[C@H](CC(C)C)NC(=O)[C@H](CCCNC(=N)N)NC(=O)[C@H](CC(=O)O)NC(=O)[C@H](CCCNC(=N)N)NC(=O)[C@@H]2CCC(=O)N2)CSSC[C@@H](C(=O)N[C@@H](Cc2ccccc2)C(=O)O)NC1=O [Example 35, pE-R-D-R-L-C-H-K-G-P-Nle-C-F-OH] ([pGlu]RDRLCHKGP[Nle]CF-OH; disulfide 6-12) | > 16.7 h
CCCC[C@@H]1NC(=O)[C@@H]2CCCN2C(=O)CNC(=O)[C@H](CCCCN)NC(=O)[C@H](Cc2cnc[nH]2)NC(=O)[C@@H](NC(=O)[C@H](CC(C)C)NC(=O)[C@H](CCCNC(=N)N)NC(=O)[C@@H]2CCCN2C(=O)[C@H](CCCNC(=N)N)NC(=O)[C@@H]2CCC(=O)N2)CSC[C@@H](C(=O)N[C@@H](Cc2ccccc2)C(=O)O)NC1=O [Example 65, pE-R-P-R-L-C-H-K-G-P-Nle-C-F-OH] | 9.93 h
CCCC[C@@H]1NC(=O)[C@@H]2CCCN2C(=O)CNC(=O)[C@H](CCCCN)NC(=O)[C@H](Cc2c[nH]cn2)NC(=O)[C@@H](NC(=O)[C@H](CC(C)C)NC(=O)[C@H](CCCNC(=N)N)NC(=O)[C@@H]2CCCN2C(=O)[C@H](CCCNC(=N)N)NC(=O)[C@@H]2CCC(=O)N2)CSSC[C@@H](C(=O)N[C@@H](Cc2ccccc2)C(N)=O)NC1=O [Example 62, pE-R-P-R-L-C-H-K-G-P-Nle-C-F-NH2] ([pGlu]RPRLCHKGP[Nle]CF-NH2; disulfide 6-12) | > 16.7 h
CCCC[C@@H]1NC(=O)[C@@H]2CCCN2C(=O)CNC(=O)[C@H](Cc2ccccc2)NC(=O)[C@H](Cc2c[nH]cn2)NC(=O)[C@@H](NC(=O)[C@H](CC(C)C)NC(=O)[C@H](CCCNC(=N)N)NC(=O)[C@@H]2CCCN2C(=O)[C@H](CCCNC(=N)N)NC(=O)[C@@H]2CCC(=O)N2)CCCNC(=O)C[C@@H](C(=O)NCCc2ccccc2)NC1=O [Example 3, pE-R-P-R-L-Orn-H-F-G-P-Nle-D-Phenethylamine] ([pGlu]RPRL[Orn]HFGP[Nle]D-NHPhenethyl; lactam 6-12) | 1.63 h
CCCC[C@@H]1NC(=O)[C@@H]2CCCN2C(=O)CNC(=O)C2(CCNCC2)NC(=O)[C@H](Cc2c[nH]cn2)NC(=O)[C@@H](NC(=O)[C@H](CC(C)C)NC(=O)[C@H](CCCNC(=N)N)NC(=O)[C@@H]2CCCN2C(=O)[C@H](CCCNC(=N)N)NC(=O)[C@@H]2CCC(=O)N2)CSSC[C@@H](C(=O)N[C@@H](Cc2ccccc2)C(=O)O)NC1=O [Example 21, pE-R-P-R-L-C-H-(4-NH-Isn)-G-P-Nle-C-F-OH] ([pGlu]RPRLCH[Api]GP[Nle]CF-OH; disulfide 6-12) | 10.7 h
CCCC[C@@H]1NC(=O)[C@@H]2CCCN2C(=O)CNC(=O)[C@H](Cc2ccccc2)NC(=O)[C@H](Cc2c[nH]cn2)NC(=O)[C@@H](NC(=O)[C@H](CC(C)C)NC(=O)[C@H](CCCNC(=N)N)NC(=O)[C@@H]2CCCN2C(=O)[C@H](CCCNC(=N)N)NC(=O)[C@@H]2CCC(=O)N2)CSSC[C@@H](C(=O)NCCc2ccccc2)NC1=O [Example 19, pE-R-P-R-L-C-H-F-G-P-Nle-C-Phenethylamine] ([pGlu]RPRLCHFGP[Nle]C-NHPhenethyl; disulfide 6-12) | 0.473 h
CCCC[C@@H]1NC(=O)[C@@H]2CCCN2C(=O)CNC(=O)[C@H](CCCCN)NC(=O)[C@H](Cc2c[nH]cn2)NC(=O)[C@@H](NC(=O)[C@H](CC(=O)O)NC(=O)[C@H](CCCNC(=N)N)NC(=O)[C@@H]2CCCN2C(=O)[C@H](CCCNC(=N)N)NC(=O)[C@@H]2CCC(=O)N2)CSSC[C@@H](C(=O)N[C@@H](Cc2ccccc2)C(=O)O)NC1=O [Example 42, pE-R-P-R-D-C-H-K-G-P-Nle-C-F-OH] ([pGlu]RPRDCHKGP[Nle]CF-OH; disulfide 6-12) | > 16.7 h
CCCC[C@@H]1NC(=O)C2CCCCN2C(=O)CNC(=O)[C@H](CCCCN)NC(=O)[C@H](Cc2c[nH]cn2)NC(=O)[C@@H](NC(=O)[C@H](CC(C)C)NC(=O)[C@H](CCCNC(=N)N)NC(=O)[C@@H]2CCCN2C(=O)[C@H](CCCNC(=N)N)NC(=O)[C@@H]2CCC(=O)N2)CSSC[C@@H](C(=O)N[C@@H](Cc2ccccc2)C(=O)O)NC1=O (stereo partly drawn) [Example 46, pE-R-P-R-L-C-H-K-G-(Pipecolic acid)-Nle-C-F-OH] ([pGlu]RPRLCHKG[ξPip][Nle]CF-OH; disulfide 6-12) | 8.37 h
CCCC[C@@H]1NC(=O)[C@@H]2CCCN2C(=O)CNC(=O)[C@H](CCCCN)NC(=O)[C@H](Cc2c[nH]cn2)NC(=O)[C@@H](NC(=O)[C@H](CC(C)C)NC(=O)[C@H](CCCNC(=N)N)NC(=O)[C@@H]2CCCN2C(=O)[C@H](CCCNC(=N)N)NC(=O)[C@@H]2CCC(=O)N2)CSSC[C@H](C(=O)N[C@@H](Cc2ccccc2)C(=O)O)NC1=O [Example 56, pE-R-P-R-L-C-H-K-G-P-Nle-c-F-OH] ([pGlu]RPRLCHKGP[Nle][dC]F-OH; disulfide 6-12) | > 16.7 h
CCCC[C@@H]1NC(=O)[C@@H]2CCCN2C(=O)CNC(=O)[C@H](CCCCN)NC(=O)[C@H](Cc2c[nH]cn2)NC(=O)[C@@H](NC(=O)[C@H](CC(C)C)NC(=O)[C@H](CCCNC(=N)N)NC(=O)[C@H](CCCCN)NC(=O)[C@H](CCCNC(=N)N)NC(=O)[C@@H]2CCC(=O)N2)CSSC[C@@H](C(=O)N[C@@H](Cc2ccccc2)C(=O)O)NC1=O [Example 34, pE-R-K-R-L-C-H-K-G-P-Nle-C-F-OH] ([pGlu]RKRLCHKGP[Nle]CF-OH; disulfide 6-12) | 8.42 h
CCCC[C@@H]1NC(=O)[C@@H]2CCCN2C(=O)CNC(=O)[C@H](CCCCN)NC(=O)[C@H](Cc2c[nH]cn2)NC(=O)[C@@H](NC(=O)[C@H](CC(C)C)NC(=O)[C@H](CCCNC(=N)N)NC(=O)[C@@H]2CCCN2C(=O)[C@H](Cc2ccccc2)NC(=O)[C@@H]2CCC(=O)N2)CSSC[C@@H](C(=O)N[C@@H](Cc2ccccc2)C(=O)O)NC1=O [Example 31, pE-F-P-R-L-C-H-K-G-P-Nle-C-F-OH] ([pGlu]FPRLCHKGP[Nle]CF-OH; disulfide 6-12) | > 16.7 h
CCCC[C@@H]1NC(=O)[C@@H]2CCCN2C(=O)CNC(=O)[C@H](CCCCN)NC(=O)[C@H](Cc2ccccc2)NC(=O)[C@@H](NC(=O)[C@H](CC(C)C)NC(=O)[C@H](CCCNC(=N)N)NC(=O)[C@@H]2CCCN2C(=O)[C@H](CCCNC(=N)N)NC(=O)[C@@H]2CCC(=O)N2)CCCCNC(=O)[C@H](Cc2ccccc2)NC1=O [Example 5, pE-R-P-R-L-K-F-K-G-P-Nle-F] ([pGlu]RPRLKFKGP[Nle]F; lactam 6-C) | 2.1 h
CCCCCCCCCCCCCCCC(=O)NCCCC[C@@H]1NC(=O)[C@@H](NC(=O)[C@H](CC(C)C)NC(=O)[C@H](CCCNC(=N)N)NC(=O)[C@@H]2CCCN2C(=O)[C@H](CCCNC(=N)N)NC(=O)[C@@H]2CCC(=O)N2)CSSC[C@@H](C(=O)N[C@@H](Cc2ccccc2)C(=O)O)NC(=O)[C@H](CCCC)NC(=O)[C@@H]2CCCN2C(=O)CNC(=O)[C@H](CCCCN)NC1=O [Example 23, pE-R-P-R-L-C-K(Palmitoyl)-K-G-P-Nle-C-F-OH] ([pGlu]RPRLCK(Palmitoyl)KGP[Nle]CF-OH; disulfide 6-12) | > 16.7 h
CCCCCCCCCCCC(=O)NCCCC[C@H](NC(=O)[C@@H]1CSSC[C@H](NC(=O)[C@H](CC(C)C)NC(=O)[C@H](CCCNC(=N)N)NC(=O)[C@@H]2CCCN2C(=O)[C@H](CCCNC(=N)N)NC(=O)[C@@H]2CCC(=O)N2)C(=O)N[C@@H](Cc2c[nH]cn2)C(=O)N[C@@H](CCCCN)C(=O)NCC(=O)N2CCC[C@H]2C(=O)N[C@@H](CCCC)C(=O)N1)C(=O)O [Example 26, pE-R-P-R-L-C-H-K-G-P-Nle-C-K(Lauroyl)-OH] ([pGlu]RPRLCHKGP[Nle]CK(Lauroyl)-OH; disulfide 6-12) | > 16.7 h
CCCC[C@@H]1NC(=O)[C@@H]2CCCN2C(=O)CNC(=O)[C@H](Cc2ccccc2)NC(=O)[C@H](Cc2c[nH]cn2)NC(=O)[C@@H](NC(=O)[C@H](CC(C)C)NC(=O)[C@H](CCCNC(=N)N)NC(=O)[C@@H]2CCCN2C(=O)[C@H](CCCNC(=N)N)NC(=O)[C@@H]2CCC(=O)N2)CCCCNC(=O)CC[C@@H](C(=O)NCCc2ccccc2)NC1=O [Example 2, pE-R-P-R-L-K-H-F-G-P-Nle-E-Phenethylamine] ([pGlu]RPRLKHFGP[Nle]E-NHPhenethyl; lactam 6-12) | 0.452 h
CCCCCCCCCCCCCC(=O)NCCCC[C@@H]1NC(=O)[C@H](Cc2c[nH]cn2)NC(=O)[C@@H](NC(=O)[C@H](CC(C)C)NC(=O)[C@H](CCCNC(=N)N)NC(=O)[C@@H]2CCCN2C(=O)[C@H](CCCNC(=N)N)NC(=O)[C@@H]2CCC(=O)N2)CSSC[C@@H](C(=O)N[C@@H](Cc2ccccc2)C(=O)O)NC(=O)[C@H](CCCC)NC(=O)[C@@H]2CCCN2C(=O)CNC1=O [Example 61, pE-R-P-R-L-C-H-K(Myristoyl)-G-P-Nle-C-F-OH] ([pGlu]RPRLCHK(Myristoyl)GP[Nle]CF-OH; disulfide 6-12) | 4.33 h
